Laboratory results as given in patent US12544370B2, “Methods for cancer therapy” (ASCENTAGE PHARMA (SUZHOU) CO., LTD., priority 2018, dated 2026).

How the values were obtained:
[1] = Phase I study, pharmacokinetics (Example 1); format: in vivo, human
[2] = tested on: tyrosine phosphorylation of CRKL in peripheral blood mononuclear cell (PBMCs); experiment: Phase I study, pharmacodynamics: CRKL phosphorylation in PBMCs (Example 1); format: in vivo, human; details: doses 12 mg-60 mg, schedule and dose-dependent
[3] = tested on: patients with chronic phase (CP/CML-CP) or accelerated phase (AP/CML-AP) CML resistant to or intolerant of ≥2 prior TKIs or with BCR-ABL T315I; experiment: Phase 1 trial in resistant CML, further safety (Example 2)
Excerpt: The eligible patients received continuous treatment until disease progression or unacceptable toxicity, consent withdrawal, or death. The primary efficacy endpoints were major cytogenetic response (MCyR) for CP and complete hematological response (CHR) for AP. MCyR includes partial cytogenetic response (PCyR) and complete cytogenetic response (CCyR). Blood samples were collected at various time points on Day 1-2 and Day 27-28 during cycle 1 for PK analyses.

[4] = tested on: human CML xenograft model; experiment: Subcutaneous tumors, human CML xenograft model; format: in vivo
[5] = tested on: murine Ba/F3 cells expressing BCR-ABL^WT; experiment: Subcutaneous tumors, isogenic Ba/F3 BCR-ABL WT model; format: in vivo
[6] = tested on: Ba/F3 cells having BCR-ABL^WT
[7] = tested on: Ba/F3 cells having BCR-ABL^T315I
[8] = biological target: Ba/F3 containing BCR-ABL Wild Type (Homo sapiens, UniProt P00519); details: read-out: Antiproliferation Effect (IC50)
[9] = Example 2, Table 3, treatment related AE, treated population 101

Ba/F3 containing BCR-ABL Wild Type, sequence (P00519 whole entry, change not shown): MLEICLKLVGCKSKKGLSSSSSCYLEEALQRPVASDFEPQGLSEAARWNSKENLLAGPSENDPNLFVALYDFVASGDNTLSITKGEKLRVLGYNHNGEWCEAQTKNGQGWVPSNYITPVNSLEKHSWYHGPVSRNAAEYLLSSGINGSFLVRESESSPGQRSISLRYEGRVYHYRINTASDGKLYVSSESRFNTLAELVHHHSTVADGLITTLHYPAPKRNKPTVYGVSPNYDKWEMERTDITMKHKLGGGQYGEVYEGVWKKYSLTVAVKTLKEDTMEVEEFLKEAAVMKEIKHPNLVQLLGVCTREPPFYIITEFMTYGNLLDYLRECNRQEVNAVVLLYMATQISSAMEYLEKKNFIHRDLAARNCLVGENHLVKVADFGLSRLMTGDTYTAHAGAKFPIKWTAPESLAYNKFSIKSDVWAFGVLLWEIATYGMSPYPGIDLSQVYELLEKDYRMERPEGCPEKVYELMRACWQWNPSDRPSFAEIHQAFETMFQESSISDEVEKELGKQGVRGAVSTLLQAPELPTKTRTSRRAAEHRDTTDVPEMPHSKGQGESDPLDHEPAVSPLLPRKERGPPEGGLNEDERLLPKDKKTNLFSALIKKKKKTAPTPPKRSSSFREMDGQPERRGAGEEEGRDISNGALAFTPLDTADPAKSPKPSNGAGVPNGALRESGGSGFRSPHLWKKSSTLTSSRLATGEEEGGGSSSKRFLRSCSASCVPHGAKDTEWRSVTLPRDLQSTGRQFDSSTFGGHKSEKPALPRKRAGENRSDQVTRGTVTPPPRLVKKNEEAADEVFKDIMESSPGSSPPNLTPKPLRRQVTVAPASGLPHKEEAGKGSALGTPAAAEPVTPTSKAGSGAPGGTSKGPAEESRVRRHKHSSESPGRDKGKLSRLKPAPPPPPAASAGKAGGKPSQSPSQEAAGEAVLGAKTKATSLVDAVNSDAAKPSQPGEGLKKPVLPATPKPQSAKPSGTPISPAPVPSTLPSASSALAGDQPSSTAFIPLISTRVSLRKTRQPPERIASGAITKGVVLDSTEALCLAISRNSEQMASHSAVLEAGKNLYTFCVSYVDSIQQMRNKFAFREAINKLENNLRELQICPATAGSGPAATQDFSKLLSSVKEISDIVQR

Cc1ccc(C(=O)Nc2ccc(CN3CCN(C)CC3)c(C(F)(F)F)c2)cc1C#Cc1cnc2[nH]ncc2c1 [compound of formula (I-A), 3-(2-(1H-pyrazolo[3,4-b]pyridin-5-yl)ethynyl)-4-methyl-N-(4-((4-methylpiperazin-1-yl)methyl)-3-(trifluoromethyl)phenyl)-benzamide]
time at which peak concentration was reached ([1]; oral, 1 mg to 60 mg): 2 to 8 h
dose proportionality of Cmax and AUC0-t ([1]; single or multiple oral dose 1 to 60 mg): approximately dose proportional increase
reduction of CRKL phosphorylation [2]: ≥ 50%
death / CTCAE grade 5 events on study ([3]; Example 2): No death and no CTCAE grade 5 events
ALT elevation, Any Grade [3, 9]: 34 (33.7%) n(%)
ALT elevation, Grade 3, 4 [3, 9]: 2 (2.0%) n(%)
ALT elevation, SAE [3, 9]: 0 n(%)
AST elevation, Any Grade [3, 9]: 37 (36.6%) n(%)
AST elevation, Grade 3, 4 [3, 9]: 3 (3.0%) n(%)
AST elevation, SAE [3, 9]: 0 n(%)
Anemia, Any Grade [3, 9]: 25 (24.8%) n(%)
Anemia, Grade 3, 4 [3, 9]: 12 (11.9%) n(%)
Anemia, SAE [3, 9]: 2 (2.0%) n(%)
Bilirubin elevation, Any Grade [3, 9]: 34 (33.7%) n(%)
Bilirubin elevation, Grade 3, 4 [3, 9]: 1 (1.0%) n(%)
Bilirubin elevation, SAE [3, 9]: 0 n(%)
CPK elevation, Any Grade [3, 9]: 20 (19.8%) n(%)
CPK elevation, Grade 3, 4 [3, 9]: 2 (2.0%) n(%)
CPK elevation, SAE [3, 9]: 0 n(%)
GGT elevation, Any Grade [3, 9]: 24 (23.8%) n(%)
GGT elevation, Grade 3, 4 [3, 9]: 0 n(%)
GGT elevation, SAE [3, 9]: 0 n(%)
Hyperglycaemia, Grade 3, 4 [3, 9]: 0 n(%)
Hyperglycaemia, SAE [3, 9]: 0 n(%)
Hypertriglyceridaemia, Any grade [3, 9]: 55 (54.5%) n(%)
Hypertriglyceridaemia, Grade 3, 4 [3, 9]: 8 (7.9%) n(%)
Hypertriglyceridaemia, SAE [3, 9]: 0 n(%)
Hypocalcaemia, Any grade [3, 9]: 34 (33.7%) n(%)
Hypocalcaemia, Grade 3, 4 [3, 9]: 0 n(%)
Hypocalcaemia, SAE [3, 9]: 0 n(%)
Hypokalaemia, Any Grade [3, 9]: 20 (19.8%) n(%)
Hypokalaemia, Grade 3, 4 [3, 9]: 0 n(%)
Hypokalaemia, SAE [3, 9]: 0 n(%)
Hyponatraemia, Any Grade [3, 9]: 23 (22.8%) n(%)
Hyponatraemia, Grade 3, 4 [3, 9]: 0 n(%)
Hyponatraemia, SAE [3, 9]: 0 n(%)
Myalgia, Grade 3, 4 [3, 9]: 0 n(%)
Myalgia, SAE [3, 9]: 0 n(%)
Proteinuria, Any grade [3, 9]: 35 (34.7%) n(%)
Proteinuria, Grade 3, 4 [3, 9]: 5 (5.0%) n(%)
Proteinuria, SAE [3, 9]: 0 n(%)
Pyrexia, Any Grade [3, 9]: 18 (17.8%) n(%)
Pyrexia, Grade 3, 4 [3, 9]: 7 (6.9%) n(%)
Pyrexia, SAE [3, 9]: 1 (1.0%) n(%)
Rash, Any Grade [3, 9]: 15 (14.9%) n(%)
Rash, Grade 3, 4 [3, 9]: 2 (2.0%) n(%)
Rash, SAE [3, 9]: 0 n(%)
Skin mass, Any Grade [3, 9]: 10 (9.9%) n(%)
Skin mass, Grade 3, 4 [3, 9]: 1 (1.0%) n(%)
Skin mass, SAE [3, 9]: 0 n(%)
Skin pigmentation, Any Grade [3, 9]: 79 (78.2%) n(%)
Skin pigmentation, Grade 3, 4 [3, 9]: 0 n(%)
Skin pigmentation, SAE [3, 9]: 0 n(%)
Thrombocytopenia, Any grade [3, 9]: 76 (75.2%) n(%)
Thrombocytopenia, Grade 3, 4 [3, 9]: 50 (49.5%) n(%)
Thrombocytopenia, SAE [3, 9]: 6 (5.9%) n(%)
leukopenia, Grade 3, 4 [3, 9]: 20 (19.8%) n(%)
leukopenia, SAE [3, 9]: 0 n(%)
patients who experienced DLT ([3]; Example 2, 60 mg cohort): Two out of 3
grade ¾ TRAE thrombocytopenia ([3]; Example 2, 101 patients): 49.5%
tolerability ([3]; Example 2, 101 patients): well-tolerated in all dose cohorts with an exception of 60 mg cohort
MTD ([3]; Example 2, QOD): 50 mg
patients who experienced ≥1 treatment related adverse events (TRAEs) ([3]; Example 2, all patients): 101 (100%) n (%)
effect on subcutaneous tumors [4]: complete regression
effect on subcutaneous tumors [5]: complete regression
survival rate of isogenic leukemia mice [6]: significantly improved the survival rate
survival rate of isogenic leukemia mice ([7]; Ba/F3 BCR-ABL T315I): significantly improved the survival rate
survival of tumor bearing mice (FIG. 8) ([7]; oral q2d or q3d, dose-dependent manner, imatinib qd as control): significantly prolonged the survival
GI50 [8]: 6 ± 3 nM
